Laboratory results: patent US10646472B2, “Composition comprising a photosensitive compound in a polymeric nanoparticle, and a method of using the composition” (Oregon State University, priority 2015, dated 2020)

Tested on: Chinese Hamster Ovary (CHO-K1) cells
Test: In vitro micronucleus assay (genotoxicity)
Format: cell-based
Conditions: SiNc-NP 90 μg/mL, 24 hours; MMS 50 μg/mL positive control
Protocol: Genotoxicity describes the property of chemical agents that damages the genetic information within a cell causing mutations, which may lead to cancer. An in vitro micronucleus assay was used to determine the genotoxicity of SiNc-NP on Chinese Hamster Ovary (CHO-K1) cells. Cells were treated with SiNc-NP (90 μg/mL) for the experiment group, fresh media for negative control, or methyl methanesulfonate (MMS, 50 μg/mL) for a positive control.
A quantitative analysis was then performed to evaluate the genotoxicity. The analysis counted the number of micronuclei per 1000 cells.

## COS(C)(=O)=O [MMS, methyl methanesulfonate]
  appearance of cell nuclei (fluorescence imaging, DAPI): noticeable numbers of small buds/fragments appeared on or near cell nuclei
